These results are taken from publication PMC3760505 (Bioorganic & medicinal chemistry letters, 2009).

Molecules are shown by their SMILES. pIC50: −log10 of the molar value.

In data set [1] the test system is T. brucei brucei parasites.
A further data set is described as follows: in vitro. The note with it: human, Jurkat cells.
The target of the next data set is rhodesain (Trypanosoma brucei rhodesiense, UniProt Q95PM0). The data set can be described thus: biochemical. The conditions noted are these: read-out: rhodesain inhibition kinetics kinact/Ki.
Chain of rhodesain (Q95PM0 1-450): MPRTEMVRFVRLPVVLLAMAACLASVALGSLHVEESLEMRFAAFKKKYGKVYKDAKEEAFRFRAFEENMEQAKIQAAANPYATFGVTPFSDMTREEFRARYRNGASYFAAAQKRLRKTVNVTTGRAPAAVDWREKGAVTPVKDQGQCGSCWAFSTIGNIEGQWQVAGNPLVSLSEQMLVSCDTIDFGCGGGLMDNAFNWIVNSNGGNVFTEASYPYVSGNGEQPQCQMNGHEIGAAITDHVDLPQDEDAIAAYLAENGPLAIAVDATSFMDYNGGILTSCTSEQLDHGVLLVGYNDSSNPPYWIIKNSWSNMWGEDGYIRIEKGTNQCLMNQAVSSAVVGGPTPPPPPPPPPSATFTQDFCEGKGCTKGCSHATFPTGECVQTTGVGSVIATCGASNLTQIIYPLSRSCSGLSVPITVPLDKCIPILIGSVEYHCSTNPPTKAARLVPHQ
A further data set addresses cruzain (Trypanosoma cruzi, UniProt P25779). The note with it: initial survey of non-peptidic P2/P3 moieties.
Data set [2] has as its system T. brucei brucei parasites. The data set can be described thus: microbe, parasite or virus in culture. The conditions noted are these: Trypanosoma brucei, read-out: parasite growth inhibition GI50 T.b.b parasites.
The next data set has as its system Jurkat cells. The note with it: at 10 uM.

Chain of cruzain (P25779 123-467): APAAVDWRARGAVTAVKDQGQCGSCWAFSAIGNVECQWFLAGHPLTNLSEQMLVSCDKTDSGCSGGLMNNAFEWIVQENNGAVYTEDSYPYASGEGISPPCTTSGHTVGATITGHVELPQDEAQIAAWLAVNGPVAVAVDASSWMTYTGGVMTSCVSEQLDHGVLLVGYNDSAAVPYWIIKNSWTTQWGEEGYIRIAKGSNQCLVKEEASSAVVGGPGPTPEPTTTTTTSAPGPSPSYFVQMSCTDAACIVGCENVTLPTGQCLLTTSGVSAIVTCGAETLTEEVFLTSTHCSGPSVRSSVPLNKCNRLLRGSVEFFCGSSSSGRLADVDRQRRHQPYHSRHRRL

One may read the pIC50 as the IC50 on a negative log10 scale, so that one unit is a factor of ten. High values mean a low IC50, low ones a high IC50. Consider `O=C(N[C@H](/C=C/S(=O)(=O)c1ccccc1)CCc1ccccc1)c1cc(-c2ccccn2)no1` [4d], for which, in data set [1], the “effect against cultured parasites (in words)” value (“effect” for short) was “antiparasitic effects at low micromolar concentration”. Further, the pIC50 in “in vitro” was below 4.00. Moreover, the kinact/KI on rhodesain stood at 7720 M⁻¹ s⁻¹.

Regarding `O=C(N[C@H](/C=C/S(=O)(=O)c1ccccc1)CCc1ccccc1)c1cc(-c2ccncc2)no1` [4b], in data set [1], the “effect” value was “antiparasitic effects at low micromolar concentration”. In addition, in the data set “in vitro”, the pIC50 was below 4.00. On rhodesain, the kinact/KI was 8590 M⁻¹ s⁻¹.

`Cc1onc(-c2ccc(F)cc2)c1C(=O)N[C@H](/C=C/S(=O)(=O)c1ccccc1)CCc1ccccc1` [compound 5]: the “enzyme activity (in words)” value at cruzain is “ineffective”.

Take `O=C(N[C@H](/C=C/S(=O)(=O)c1ccccc1)CCc1ccccc1)c1cc(-c2cccnc2)no1` [4c]: the negative logarithm of the IC50 (pIC50) in “in vitro” is below 4.00.

Regarding `O=C(N[C@H](/C=C/S(=O)(=O)c1ccccc1)CCc1ccccc1)c1cc(-c2ccccc2)no1` [4a], the “effect” value in data set [1] is recorded as “ineffective against cultured parasites”. The molecule also had a pIC50 in the data set “in vitro” below 4.00. For the same molecule, on rhodesain, the kinact/KI worked out at 3610 M⁻¹ s⁻¹.

Take `O=C(N[C@H](/C=C/S(=O)(=O)c1ccccc1)CCc1ccccc1)[C@H]1CCCC[C@@H]1C(=O)c1ccc(Cl)cc1` [7b]: at rhodesain, the kinact/KI is 2160 M⁻¹ s⁻¹.

Take `CC(C)(C)c1cc(C(=O)N[C@H](/C=C/S(=O)(=O)c2ccccc2)CCc2ccccc2)n(Cc2ccccc2)n1` [compound 6]: the “enzyme activity (in words)” value on cruzain was “ineffective”.

For orientation: GI50 means the concentration giving 50% growth inhibition. `O=C(N[C@H](/C=C/S(=O)(=O)c1ccccc1)CCc1ccccc1)[C@@H]1CCCC[C@H]1C(=O)c1ccc(Cl)cc1` [7a] had a pIC50 in “in vitro” below 4.00. In addition, the GI50 in data set [2] is 12 µM. The kinact/KI on rhodesain was found to be 9750 M⁻¹ s⁻¹.

For `CN1CCN(C(=O)N[C@@H](Cc2ccccc2)C(=O)N[C@H](/C=C/S(=O)(=O)c2ccccc2)CCc2ccccc2)CC1` [K-777 (1)], in the data set on Jurkat cells, the “cytotoxicity Jurkat cells, percent at single concentration” value amounted to 3% at 10 uM.

For `Cc1nc(-c2cnccn2)sc1C(=O)N[C@H](/C=C/S(=O)(=O)c1ccccc1)CCc1ccccc1` [3c], the “effect” value in data set [1] is reported as “antiparasitic effects at low micromolar concentration”. Besides, the pIC50 in “in vitro” is below 4.00. Besides, the kinact/KI at rhodesain was determined as 25200 M⁻¹ s⁻¹.

Regarding `Cc1nc(-c2cccnc2)sc1C(=O)N[C@H](/C=C/S(=O)(=O)c1ccccc1)CCc1ccccc1` [3b], the “effect” value in data set [1] is reported as “antiparasitic effects at low micromolar concentration”.

Regarding `Cc1nc(-c2ccccc2)sc1C(=O)N[C@H](/C=C/S(=O)(=O)c1ccccc1)CCc1ccccc1` [3a], in data set [1], the “effect” value is recorded as “ineffective against cultured parasites”. The pIC50 in the data set “in vitro” was below 4.00. Further, the kinact/KI at rhodesain came to 84000 M⁻¹ s⁻¹.
